Measured values taken from patent US6630125B2, “18F-labeled choline analogs” (priority 2000, dated 2003).

Molecular target: T1, yeast choline kinase (Saccharomyces cerevisiae, UniProt P20485)
T1 sequence (P20485 1-582): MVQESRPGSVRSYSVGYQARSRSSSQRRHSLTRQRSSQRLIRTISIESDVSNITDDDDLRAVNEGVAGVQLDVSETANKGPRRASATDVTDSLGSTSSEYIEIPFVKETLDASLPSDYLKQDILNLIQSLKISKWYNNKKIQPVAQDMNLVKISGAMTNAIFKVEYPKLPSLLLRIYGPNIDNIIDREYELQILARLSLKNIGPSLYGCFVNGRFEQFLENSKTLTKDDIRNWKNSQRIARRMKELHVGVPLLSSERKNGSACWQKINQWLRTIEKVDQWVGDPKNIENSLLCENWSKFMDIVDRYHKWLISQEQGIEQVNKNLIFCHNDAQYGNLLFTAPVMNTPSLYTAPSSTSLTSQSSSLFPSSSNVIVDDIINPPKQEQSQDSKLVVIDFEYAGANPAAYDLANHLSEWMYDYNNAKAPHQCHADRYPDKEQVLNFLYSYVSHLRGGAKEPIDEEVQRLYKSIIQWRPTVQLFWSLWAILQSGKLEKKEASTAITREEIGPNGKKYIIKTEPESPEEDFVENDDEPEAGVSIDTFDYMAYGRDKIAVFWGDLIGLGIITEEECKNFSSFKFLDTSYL
Assay: In vitro phosphorylation by yeast choline kinase
Assay type: biochemical
Conditions: 1 μM choline
Procedure: The test tube was gently agitated throughout the incubation period. The reaction was stopped by placing the tube in a boiling water bath for 2 min. To serve as controls, some samples were placed directly in the boiling water bath after addition of all substrates. […] The percentage of radioactivity converted to the phosphorylated form was calculated.

Compound | phosphorylation rate compared with CH | phosphorylation rate, less than for FCH [%]
CC[N+](C)(C[18F])CCO (stereo not shown) [FEtC, [^18F]fluoromethylethylcholine] | equivalent to CH | 
C[N+](C)(CCO)CCC[18F] [FPC, [^18F]fluoropropylcholine] |  | ~60

Same assay, conditions: 1 μM choline, 25 mU/ml yeast choline kinase, 23° C., 10 min, n = 5

Compound | In vitro phosphorylation [%]
CC[N+](C)(C[18F])CCO (stereo not shown) [FEtC, [^18F]fluoromethylethylcholine] | 55.2 ± 6.6
C[N+](C)(CCO)CCC[18F] [FPC, [^18F]fluoropropylcholine] | 22.1 ± 3.1

Tested on: PC-3 human prostate cancer cells
Assay: Accumulation of radiotracers by cultured PC-3 cells
Assay type: cell-based
Conditions: not given
Procedure: The incubation media utilized for the experiments differed according to the cancer cell type (Table 1). On the day of the study, the medium was refreshed using a volume of 1 ml in each well. Cells were incubated in control conditions or with the addition of metabolic and growth factor receptor inhibitors to test the sensitivity of uptake of the radiotracers to specific inhibitions. […] Following a 30-min incubation period, the radiotracers (e.g., FDG or FCH) were added (˜2 µCi/well) and the cells were incubated for 2 hr. The cells were washed three times with phosphate buffered saline solution, released from the plates by briefly incubating with 0.05% trypsin in DMEM, transferred to test tubes, and counted for F-18 radioactivity in a gamma counter. The amount of radioactivity in the cells was normalized by the dose administered to each well.
The present work studies the structure-activity relationships for purposes of optimization of the molecule for imaging prostate cancer. […] A number of structural analogs of choline were labeled as N-[^18F]fluoromethyl derivatives via the intermediate [^18F]fluorobromomethane (see Table 3). Uptake of the radiotracers was assessed in cultured PC-3 human prostate cancer cells and in a murine PC-3 xenograft model.

Compound | Uptake by PC-3 cells | uptake in cultured PC-3 cells
C[N+](C)(C[18F])CCCCO [Butanol] | 0.140 ± 0.042 % dose/2 hr/10^5 cells plated | 
CC[N+](C)(C[18F])CCO (stereo not shown) [FEtC, [^18F]fluoromethylethylcholine] |  | ~2 %/hr/100,000 cells plated
C[N+](C)(C[18F])CCCO [FHC, [^18F]fluorohomocholine] |  | ~2 %/hr/100,000 cells plated
CCC[N+](C)(C[18F])CCO (stereo not shown) [FPrC] |  | ~2 %/hr/100,000 cells plated
[2H]C([2H])(O)CC[N+](C)(C)C[18F] [propanol - D] | 0.763 ± 0.065 % dose/2 hr/10^5 cells plated | 

Same assay, conditions: 5 mM hemicholinium-3

Compound | Uptake by PC-3 cancer cells, HC-3
CC[N+](C)(C[18F])CCO (stereo not shown) [FEtC, [^18F]fluoromethylethylcholine] | 0.12 ± 0.02 % dose/2 hr/105 cells plated
C[N+](C)(CCO)CCC[18F] [FPC, [^18F]fluoropropylcholine] | 0.76 ± 0.20 % dose/2 hr/105 cells plated

Same assay, conditions: HC-3 versus control

Compound | decrease in uptake by PC-3 cells with hemicholinium-3 (HC-3) [%]
C[N+](C)(CCO)CCC[18F] [FPC, [^18F]fluoropropylcholine] | 41

Same assay, conditions: control conditions

Compound | accumulation by cultured PC-3 cells compared with other tracers
CC[N+](C)(C[18F])CCO (stereo not shown) [FEtC, [^18F]fluoromethylethylcholine] | higher than HARA-1 (p<0.05), but lower than FCH
C[N+](C)(CCO)CCC[18F] [FPC, [^18F]fluoropropylcholine] | not significantly different from that of FCH

Same assay, conditions: control, 2 hr incubation

Compound | Uptake by PC-3 cancer cells, Control
CC[N+](C)(C[18F])CCO (stereo not shown) [FEtC, [^18F]fluoromethylethylcholine] | 0.74 ± 0.04 % dose/2 hr/105 cells plated
C[N+](C)(CCO)CCC[18F] [FPC, [^18F]fluoropropylcholine] | 1.29 ± 0.28 % dose/2 hr/105 cells plated

Same assay, conditions: inhibitor HC-3 (hemicholinium-3, 5 mM)

Compound | Uptake by PC-3 cells
C=CC[N+](C)(C[18F])CCO (stereo not shown) [Allyl] | 0.11 ± 0.01 % dose/2 hr/10^5 cells plated
CC[N+](C)(C[18F])CCO (stereo not shown) [FEtC, [^18F]fluoromethylethylcholine] | 0.122 ± 0.016 % dose/2 hr/10^5 cells plated
CCC[N+](C)(C[18F])CCO (stereo not shown) [FPrC] | 0.062 ± 0.001 % dose/2 hr/10^5 cells plated

Same assay, conditions: inhibitor none

Compound | Uptake by PC-3 cells
C=CC[N+](C)(C[18F])CCO (stereo not shown) [Allyl] | 4.45 ± 0.46 % dose/2 hr/10^5 cells plated
CCCC[N+](C)(C[18F])CCO (stereo not shown) [Butyl] | 0.153 ± 0.021 % dose/2 hr/10^5 cells plated
C[N+](C[18F])(CCO)CCO [Diethanol] | 0.462 ± 0.083 % dose/2 hr/10^5 cells plated
CC[N+](CC)(C[18F])CCO [Diethyl] | 0.503 ± 0.091 % dose/2 hr/10^5 cells plated
CC[N+](C)(C[18F])CCCO (stereo not shown) [Ethyl-Prop.] | 0.285 ± 0.023 % dose/2 hr/10^5 cells plated
[2H]C([2H])(O)C[N+](C)(C)C[18F] [FDC] | 2.410 ± 0.144 % dose/2 hr/10^5 cells plated
[2H]C([2H])(O)C[N+](C)(CC)C[18F] (stereo not shown) [FEDC] | 0.720 ± 0.065 % dose/2 hr/10^5 cells plated
CC[N+](C)(C[18F])CCO (stereo not shown) [FEtC, [^18F]fluoromethylethylcholine] | 0.741 ± 0.041 % dose/2 hr/10^5 cells plated
C[N+](C)(C[18F])CCCO [FHC, [^18F]fluorohomocholine] | 1.635 ± 0.306 % dose/2 hr/10^5 cells plated
C#CC[N+](C)(C[18F])CCO (stereo not shown) [FPP] | 7.90 ± 0.53 % dose/2 hr/10^5 cells plated
CCC[N+](C)(C[18F])CCO (stereo not shown) [FPrC] | 1.877 ± 0.115 % dose/2 hr/10^5 cells plated
CC(C)C[N+](C)(C[18F])CCO (stereo not shown) [Isobutyl] | 2.74 ± 0.09 % dose/2 hr/10^5 cells plated
CCCCC[N+](C)(C[18F])CCO (stereo not shown) [Pentyl] | 0.073 ± 0.007 % dose/2 hr/10^5 cells plated
CCC[N+](C)(C[18F])CCCO (stereo not shown) [Propyl-prop.] | 0.234 ± 0.050 % dose/2 hr/10^5 cells plated
CCC(C)[N+](C)(C[18F])CCO (stereo not shown) [Sec-butyl] | 0.28 ± 0.01 % dose/2 hr/10^5 cells plated
CC(O)C[N+](C)(C)C[18F] (stereo not shown) [Tracer 1-methyl] | 0.202 ± 0.021 % dose/2 hr/10^5 cells plated
CC(CO)[N+](C)(C)C[18F] (stereo not shown) [Tracer 2-methyl] | 0.182 ± 0.016 % dose/2 hr/10^5 cells plated
C[N+](C[18F])(CCO)Cc1ccccc1 (stereo not shown) [benzyl] | 0.202 ± 0.009 % dose/2 hr/10^5 cells plated
OCC[N+]1(C[18F])CCCC1 [cyclic 5N] | 0.355 ± 0.028 % dose/2 hr/10^5 cells plated
OCC[N+]1(C[18F])CCOCC1 [cyclic 6NO] | 0.399 ± 0.014 % dose/2 hr/10^5 cells plated
OCC[N+]1(C[18F])CCCCC1 [cyclic 6N] | 0.144 ± 0.014 % dose/2 hr/10^5 cells plated
C[N+]1(C[18F])CCCC(O)C1 (stereo not shown) [cyclic N—OH] | 0.077 ± 0.011 % dose/2 hr/10^5 cells plated
[2H]C([2H])(O)C[N+](C)(C[18F])CCC (stereo not shown) [propyl - D] | 1.864 ± 0.307 % dose/2 hr/10^5 cells plated
OCC[N+](C[18F])(CCO)CCO [triethanol] | 0.170 ± 0.045 % dose/2 hr/10^5 cells plated

Tested on: mice with PC-3 xenografts
Assay: not given
Conditions: 60 min after injection
Procedure: Body weight and tumor volume were measured weekly and tumor volume (mm3) was calculated using the formula S2×L/2, where S and L represent the small and large diameters of the tumor, respectively.
A prescribed duration of time was allowed before procurement of heart, liver, lung, blood, kidney, bone (femur), brain (whole), prostate gland, tumor, bladder, and skeletal muscle. The tissues were weighed, and counted for ^18F in a gamma counter, then dissolved in Solvable (Dupont, Boston Mass.) and counted for ^14C in a liquid scintillation counter. For the bladder, the percentage of the injected dose in the urine was determined. For all other tissues, radiotracer uptake was calculated as: […]

Compound | Tumor:muscle ratio | tumor:blood ratio
[2H]C([2H])(O)C[N+](C)(C)C[18F] [FDC] | highest | highest

Same assay, conditions: PC-3 xenograft

Compound | tumor uptake [% dose kg/g]
CC[N+](C)(C[18F])CCO (stereo not shown) [FEtC, [^18F]fluoromethylethylcholine] | ~0.07
C[N+](C)(C[18F])CCCO [FHC, [^18F]fluorohomocholine] | ~0.07
CCC[N+](C)(C[18F])CCO (stereo not shown) [FPrC] | ~0.07

Tested on: patients with prostate cancer
Assay: PET imaging in patients with prostate cancer
Conditions: Example 11 patient, metastatic prostate cancer
Procedure: The distribution of FCH in PET imaging studies was evaluated in 14 patients with prostate cancer, 14 patients with breast cancer, and 5 patients with brain tumors. Imaging was performed using the Advance PET scanner (GE Medical Systems, Milwaukee, Wis.). […] In prostate cancer patients, a transmission scan of the pelvic region was obtained before administration of radiotracer. FCH (2.5-5 mCi) was administered intravenously, and dynamic imaging of the pelvis region was commenced for 20-30 min. During image reconstruction, the emission data in the pelvic region were corrected for photon attenuation using the transmission scan. Immediately following the dynamic scan, a whole-body emission scan was performed without transmission scanning for attenuation correction. The images were reconstructed using an Ordered Subset Expectation Maximum (OS-EM) algorithm. Regions-of-interest were drawn manually on the attenuation corrected images for evaluation of FCH kinetics in tissues. Standardized uptake values of FCH uptake in tissues were calculated using the attenuation-corrected images according to the equation: [formula]
Patient 2: Transmission and FCH emission scans of a person with hormone naive clinical stage T2 prostate cancer were commenced over the lower pelvis.
The same patient was scanned with FDG within the same week (FIG. 8).
Patient 4: A person with a history of clinical stage T3b prostate cancer treated by radical retropubic prostatectomy was diagnosed with metastatic disease by bone scan. FCH-PET imaging was performed before and after initiating androgen deprivation therapy. In the first study, whole-body emission scanning was started 5 min after injection, beginning at the pelvic region in order to image the pelvis and prostatic bed before arrival of urinary radioactivity. […] The patient was rescanned 2 weeks after initiating androgen deprivation therapy.
Patient 5: A person was initially diagnosed five years prior with locally advanced clinical stage T3NOMO prostate cancer and underwent radical prostatectomy followed by external beam radiation to the prostate bed. […] The patient was then treated with Zolex and Casodex.

Compound | SUV of osseous lesion (pubic ramus)
[2H]C([2H])(O)C[N+](C)(C)C[18F] [FDC] | 11.7
